In PMC6385358, “Discovery of ((1,2,4-oxadiazol-5-yl)pyrrolidin-3-yl)ureidyl derivatives as selective non-steroidal agonists of the G-protein coupled bile acid receptor-1” (Scientific Reports, 2019):

Tests used:
Type in all cases: cell-based
GPBAR1 = target: T1, GPBAR1 (Homo sapiens, UniProt Q8TDU6); assay: Luciferase reporter (CRE) transactivation assay in HEK-293T cells transfected with GPBAR1; settings: dose response 1 to 50 µM, HEK-293T transfected with GPBAR1
T1 construct: expressed in transfected cells; host or cells: HEK-293T
T1 sequence (Q8TDU6 1-330): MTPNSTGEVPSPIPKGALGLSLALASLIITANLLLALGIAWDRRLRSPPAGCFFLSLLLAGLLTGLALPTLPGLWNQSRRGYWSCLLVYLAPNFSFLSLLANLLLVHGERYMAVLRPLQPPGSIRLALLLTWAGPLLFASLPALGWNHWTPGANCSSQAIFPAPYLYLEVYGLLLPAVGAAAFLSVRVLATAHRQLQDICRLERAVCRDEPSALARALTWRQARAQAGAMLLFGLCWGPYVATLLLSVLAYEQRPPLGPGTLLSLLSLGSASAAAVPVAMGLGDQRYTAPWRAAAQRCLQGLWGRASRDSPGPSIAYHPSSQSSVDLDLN
Protocol: (§1) The activity of compounds 1–14 on GPBAR1 was evaluated in a luciferase reporter assay using HEK-293T cells transfected with GPBAR1. The efficacy of tested compounds (Table 1) was measured using taurolithocholic acid (TLCA) as GPBAR1 reference compound[10],[11]. Each compound was tested at the concentration of 10 μM and transactivation activity of TLCA on a cAMP responsive element (CRE) (i.e. TGR5/GPBAR1) was considered equal to 100%. […] Thus, 9 and 10 (Table 1) turned out to be the most promising derivatives considering their low EC50 values and high activity efficacy. To further characterize the pharmacological properties of these compounds, we expanded their in vitro profile to common off-targets for bile acid receptor ligands.
Transactivation assay on HEK-293T cells was performed to investigate GPBAR1 activation, using compound 1–14 and TLCA as positive control at 10 µM, as previously reported.
Supplementary Figure S4. HEK-293T cells were transiently transfected with GPBAR1 and a reporter gene containing a cAMP responsive element in front of the luciferase gene. Cells were stimulated with compounds A-L (10 μM). TLCA (10 μM) was used as positive control. Luciferase activity served as a measure of the rise in intracellular cAMP following activation of GPBAR1. In all panels, results are expressed as mean ± standard error. ^∗p < 0.05 versus not treated cells (NT).

LXRα = target: T2, LXRα (Homo sapiens, UniProt Q13133); assay: Luciferase reporter specificity assay versus LXRα on HepG2 cells; settings: 10 μM
T2 construct: host or cells: HepG2
T2 sequence (Q13133 1-447): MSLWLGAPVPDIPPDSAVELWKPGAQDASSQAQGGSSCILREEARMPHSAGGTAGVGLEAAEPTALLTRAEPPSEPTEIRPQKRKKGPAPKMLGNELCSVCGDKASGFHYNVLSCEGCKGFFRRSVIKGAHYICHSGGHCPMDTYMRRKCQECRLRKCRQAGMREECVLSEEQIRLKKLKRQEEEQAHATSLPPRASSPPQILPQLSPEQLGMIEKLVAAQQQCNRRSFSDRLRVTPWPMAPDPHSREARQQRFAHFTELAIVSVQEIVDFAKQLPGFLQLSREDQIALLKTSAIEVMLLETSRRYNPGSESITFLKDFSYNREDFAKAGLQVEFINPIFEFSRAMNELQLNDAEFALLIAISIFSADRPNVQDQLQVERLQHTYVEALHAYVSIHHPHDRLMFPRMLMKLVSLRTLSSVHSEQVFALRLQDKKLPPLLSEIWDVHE
Protocol: as §1
(§2) Figure 3 (A) Dose response curves of compounds 9 and 10 (concentrations ranging from 1 to 50 µM) in luciferase reporter assay. (B) Real-time PCR analysis of mRNA expression of Pro-glucagon in GLUTag cells treated with compounds 9 and 10 at 10 μM, and TLCA used as a positive control (10 μM). Values are normalized to GAPDH and are expressed relative to those of not treated cells (NT) which are arbitrarily settled to 1. The relative mRNA expression is expressed as 2^(−ΔΔCt). […]
(§3) The specificity of compounds 9 and 10 versus PPARα, PPARγ, LXRα, LXRβ, FXR and PXR was determined in luciferase reporter gene assays as previously reported[29],[31].

FXR = target: T3, FXR (Homo sapiens, UniProt Q96RI1); assay: Luciferase reporter specificity assay versus FXR on HepG2 cells; settings: 10 μM
T3 construct: host or cells: HepG2
T3 sequence (Q96RI1 1-486): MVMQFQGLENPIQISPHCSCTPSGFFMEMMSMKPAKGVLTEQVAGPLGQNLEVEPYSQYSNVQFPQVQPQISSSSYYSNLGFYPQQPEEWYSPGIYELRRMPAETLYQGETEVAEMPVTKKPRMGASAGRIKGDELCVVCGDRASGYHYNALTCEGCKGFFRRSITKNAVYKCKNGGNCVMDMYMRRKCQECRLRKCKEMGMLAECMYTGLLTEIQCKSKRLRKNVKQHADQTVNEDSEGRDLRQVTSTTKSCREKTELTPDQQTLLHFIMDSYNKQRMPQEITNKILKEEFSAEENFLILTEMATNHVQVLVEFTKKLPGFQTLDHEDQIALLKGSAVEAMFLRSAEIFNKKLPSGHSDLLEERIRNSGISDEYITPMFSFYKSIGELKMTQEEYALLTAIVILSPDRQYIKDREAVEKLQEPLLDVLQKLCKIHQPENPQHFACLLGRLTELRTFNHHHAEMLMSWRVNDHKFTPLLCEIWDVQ
Protocol: as §1, §2, §3

PPARα = target: T4, PPARα (Homo sapiens, UniProt Q07869); assay: Luciferase reporter specificity assay versus PPARα on HepG2 cells; settings: 10 μM
T4 construct: host or cells: HepG2
T4 sequence (Q07869 1-468): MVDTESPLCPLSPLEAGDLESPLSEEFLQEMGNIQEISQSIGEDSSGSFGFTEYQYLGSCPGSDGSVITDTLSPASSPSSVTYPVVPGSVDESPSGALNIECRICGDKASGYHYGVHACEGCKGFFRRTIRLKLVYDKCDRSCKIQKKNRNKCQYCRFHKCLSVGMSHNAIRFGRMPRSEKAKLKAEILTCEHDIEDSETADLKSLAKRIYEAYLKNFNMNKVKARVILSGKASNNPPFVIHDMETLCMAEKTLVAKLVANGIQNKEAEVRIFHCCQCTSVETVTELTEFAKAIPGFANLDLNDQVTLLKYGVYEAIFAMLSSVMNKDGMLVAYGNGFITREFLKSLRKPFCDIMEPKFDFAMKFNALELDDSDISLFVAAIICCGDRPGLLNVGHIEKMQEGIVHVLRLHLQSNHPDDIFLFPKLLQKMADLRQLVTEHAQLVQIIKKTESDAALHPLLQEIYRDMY
Protocol: as §1, §2, §3

| Structure (SMILES) | EC50 (GPBAR1) | LXRα transactivation (LXRα) | FXR transactivation (FXR) | PPARα transactivation (PPARα) |
| --- | --- | --- | --- | --- |
| O=C(Nc1ccc(Cl)cc1)N[C@@H]1CN[C@H](c2nc(-c3ccccc3)no2)C1 [Compound 9] | 3.5 µM | unable to induce | unable to induce | unable to induce |
| O=C(NC1CCCCC1)N[C@@H]1CN[C@H](c2nc(-c3ccccc3)no2)C1 [Compound 10] | 4.6 µM | unable to induce | unable to induce | unable to induce |
